Patent US20230081539A1, “SUPRACHOROIDAL DELIVERY OF DRUG PARTICLES TO REDUCE TOXICITY” (The Johns Hopkins University, priority 2020, published 2023)

Tests used:
HIF-2 = HIF-2 (Homo sapiens, UniProt Q99814); conditions: in vitro; cited from earlier work
HIF-1 = HIF-1 (Homo sapiens, UniProt Q16665); conditions: in vitro; cited from earlier work
[1] = tested on: choroidal NV at Bruch's membrane rupture sites; test: Mouse CNV model, intravitreous injection of free ACF or PRF; type: in vivo, C57BL/6 mice; conditions: mice, 1 μl intravitreous injection of 50 ng immediately after rupture of Bruch's membrane, read after seven days
Procedure: Seven days after rupture of Bruch's membrane, mice were euthanized, eyecups were fixed and stained with FITC-labeled Griffonia Simplicifolia lectin (GSA, Vector Laboratories, Burlingame, Calif.), and flat mounted. The area of choroidal NV at each Bruch's membrane rupture site was measured by image analysis by an observer masked with respect to treatment group. The area of choroidal NV at the 3 rupture sites in one eye was averaged to give one experimental value for each animal. […] One week after rupture of Bruch's membrane, choroidal flat mounts were stained with FITC-Griffonia simplicifolia lectin.

[2] = Pharmacokinetics in rats: TRF and PRF in ocular tissues by LC-MS/MS after suprachoroidal PLGA-ACF MPs
Procedure: The injection site was marked in each eye. Six rats were euthanized at each of the following time points after injection: 1 and 2 weeks, and 1, 2, 3, and 4 months. After removal of the anterior segment and lens of each eye, the retina and RPE/choroid/sclera were dissected and cut in half along the horizontal meridian through the optic nerve head and frozen separately. Samples were analyzed for acriflavine and proflavine by liquid chromatography with tandem mass spectrometry (LC-MS/MS). Tissue samples were homogenized in 200 μl of methanol and homogenized with Next Advance Bullet Blender. The analytes were extracted from 25 μl of homogenized tissue with 250 μl of acetonitrile containing internal standard (5 ng/ml of acridine orange). Samples were centrifuged and the top layer was transferred to an auto sampler vial for LC/MS/MS analysis.
Mobile phase A was water containing 0.1% formic acid and mobile phase B was acetonitrile containing 0.1% formic acid. The gradient started with mobile phase B held at 50% for 1 minute and increased to 100% over 0.5 minutes; 100% mobile phase B was held for 1.5 minutes and then returned back to 50% mobile phase B and allowed to equilibrate for 1 minute. […] The column effluent was monitored using a Sciex 4500 triple quadrupole mass spectrometer with electrospray ionization operating in positive mode. […]

HIF-2, sequence (Q99814 whole entry): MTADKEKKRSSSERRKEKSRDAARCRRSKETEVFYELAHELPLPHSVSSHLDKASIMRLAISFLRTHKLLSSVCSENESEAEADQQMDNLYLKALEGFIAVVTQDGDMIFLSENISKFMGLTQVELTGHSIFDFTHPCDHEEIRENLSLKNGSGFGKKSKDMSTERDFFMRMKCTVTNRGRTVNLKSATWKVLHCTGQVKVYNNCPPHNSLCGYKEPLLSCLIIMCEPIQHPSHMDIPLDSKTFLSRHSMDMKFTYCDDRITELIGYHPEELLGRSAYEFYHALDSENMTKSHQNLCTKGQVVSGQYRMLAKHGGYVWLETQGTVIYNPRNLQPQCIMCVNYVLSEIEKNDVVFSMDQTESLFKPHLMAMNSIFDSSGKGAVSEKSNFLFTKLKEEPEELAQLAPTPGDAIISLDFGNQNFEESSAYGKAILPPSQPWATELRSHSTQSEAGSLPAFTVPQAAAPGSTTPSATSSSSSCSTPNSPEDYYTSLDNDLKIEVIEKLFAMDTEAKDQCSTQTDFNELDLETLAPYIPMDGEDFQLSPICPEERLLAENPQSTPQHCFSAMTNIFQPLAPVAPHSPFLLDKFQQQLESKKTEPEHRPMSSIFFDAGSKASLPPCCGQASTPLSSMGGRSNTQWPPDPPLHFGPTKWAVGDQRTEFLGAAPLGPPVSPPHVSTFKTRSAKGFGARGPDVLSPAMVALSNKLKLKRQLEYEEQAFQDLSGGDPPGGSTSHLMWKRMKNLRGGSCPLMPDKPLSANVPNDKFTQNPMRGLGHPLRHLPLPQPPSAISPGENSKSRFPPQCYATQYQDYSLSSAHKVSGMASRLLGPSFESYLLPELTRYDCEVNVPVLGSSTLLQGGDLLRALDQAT
HIF-1, sequence (Q16665 whole entry): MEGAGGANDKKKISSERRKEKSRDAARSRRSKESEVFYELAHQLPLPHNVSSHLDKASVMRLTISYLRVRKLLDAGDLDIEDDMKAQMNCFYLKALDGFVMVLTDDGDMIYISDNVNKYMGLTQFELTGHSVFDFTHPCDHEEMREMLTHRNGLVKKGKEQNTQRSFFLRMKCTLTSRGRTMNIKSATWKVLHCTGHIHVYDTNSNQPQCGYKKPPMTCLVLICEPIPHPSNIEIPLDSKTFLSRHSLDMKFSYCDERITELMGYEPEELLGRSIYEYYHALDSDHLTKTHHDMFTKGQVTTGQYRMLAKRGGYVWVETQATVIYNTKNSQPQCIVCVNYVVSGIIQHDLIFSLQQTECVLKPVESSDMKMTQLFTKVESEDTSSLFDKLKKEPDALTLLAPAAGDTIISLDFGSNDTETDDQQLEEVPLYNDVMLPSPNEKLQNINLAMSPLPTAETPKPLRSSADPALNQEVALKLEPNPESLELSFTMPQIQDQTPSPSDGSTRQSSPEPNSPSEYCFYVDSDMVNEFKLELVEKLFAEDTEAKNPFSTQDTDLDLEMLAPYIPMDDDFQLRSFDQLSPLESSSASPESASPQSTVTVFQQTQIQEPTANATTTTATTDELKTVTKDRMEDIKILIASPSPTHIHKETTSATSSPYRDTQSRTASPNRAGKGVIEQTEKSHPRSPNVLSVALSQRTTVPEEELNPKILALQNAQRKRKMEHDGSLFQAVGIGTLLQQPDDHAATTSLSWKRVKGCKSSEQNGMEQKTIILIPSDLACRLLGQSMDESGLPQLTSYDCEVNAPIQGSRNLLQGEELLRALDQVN

Compound	concentration that inhibits the transcriptional activity of HIF-2 (HIF-2)	concentration that inhibits the transcriptional activity of HIF-1 (HIF-1)	area of CNV at Bruch's membrane rupture sites compared with PBS [1]	further results
3,6-diamino-10-methylacridinium chloride mixed with 3,6-acridinediamine [ACF]	nanomolar	nanomolar	statistically significant reduction	–
Nc1ccc2cc3ccc(N)cc3nc2c1 [PRF, proflavine]	–	–	almost identical to that of eyes treated with PBS	–
C[n+]1c2cc(N)ccc2cc2ccc(N)cc21.[Cl-] [TRF, trypaflavine]	–	–	–	duration of steady-state levels in the low nM range in RPE/choroid and retina ([2]; suprachoroidal PLGA-ACF MPs): at least 16 weeks; steady-state level in inferior retina ([2]; suprachoroidal PLGA-ACF MPs containing 10 μg ACF, 2 through 16 weeks): ~0.1 nM
C[C@H]1O[C@@H](O[C@H]2[C@@H](O)C[C@H](O[C@H]3[C@@H](O)C[C@H](O[C@H]4CC[C@@]5(C)[C@H](CC[C@@H]6[C@@H]5C[C@@H](O)[C@]5(C)[C@@H](C7=CC(=O)OC7)CC[C@]65O)C4)O[C@@H]3C)O[C@@H]2C)C[C@H](O)[C@@H]1O [digoxin]	nanomolar	–	–	–
C[C@@H]1O[C@@H](O[C@H]2C[C@@H](O)[C@]3(CO)[C@H]4[C@H](O)C[C@]5(C)[C@@H](C6=CC(=O)OC6)CC[C@]5(O)[C@@H]4CC[C@]3(O)C2)[C@H](O)[C@H](O)[C@H]1O [ouabain]	nanomolar	–	–	–
C[C@@H]1O[C@@H](O[C@@H]2C=C3CC[C@@H]4[C@H](CC[C@]5(C)[C@@H](c6ccc(=O)oc6)CC[C@]45O)[C@@]3(C)CC2)[C@H](O)[C@H](O)[C@H]1O [proscillaridin A]	nanomolar	nanomolar	–	–
